According to the NIST ThermoML archive (doi:10.1021/je9004849):

Details: Fluid (supercritical or subcritical phases), Buoyancy - hydrostatic balance with magnetic suspension - one sinker

C [methane]
Details	mass density [kg/m3]
298.14 K, 20012 kPa	157.172
298.14 K, 29958 kPa	212.508
298.14 K, 35056 kPa	232.422
298.14 K, 49959 kPa	273.189
298.14 K, 99874 kPa	342.269
298.14 K, 124934 kPa	363.139
298.14 K, 150062 kPa	380.039
298.14 K, 159617 kPa	385.731
298.14 K, 170054 kPa	391.531
298.14 K, 185333 kPa	399.489
298.14 K, 186931 kPa	400.257
298.14 K, 188059 kPa	400.837
298.15 K, 10010 kPa	76.08
298.15 K, 79980 kPa	321.098
298.16 K, 1012 kPa	6.665
298.16 K, 66961 kPa	303.605
298.19 K, 5009 kPa	35.316
298.25 K, 14994 kPa	118.506
305.23 K, 9993 kPa	72.932
305.23 K, 49968 kPa	267.232
305.23 K, 60012 kPa	287.019
305.23 K, 79855 kPa	316.163
305.23 K, 99904 kPa	337.939
305.23 K, 124930 kPa	359.159
305.23 K, 149862 kPa	376.248
305.24 K, 1002 kPa	6.404
305.24 K, 2000 kPa	13.031
305.24 K, 5001 kPa	34.173
305.24 K, 6897 kPa	48.435
305.24 K, 15006 kPa	113.44
305.24 K, 20696 kPa	155.024
305.24 K, 29976 kPa	205.443
305.24 K, 34563 kPa	223.779
305.24 K, 69988 kPa	302.917
338.04 K, 6905 kPa	42.093
338.05 K, 5000 kPa	29.983
338.05 K, 34473 kPa	195.446
338.06 K, 70001 kPa	280.639
338.07 K, 124895 kPa	341.685
338.07 K, 149542 kPa	359.787
338.08 K, 1004 kPa	5.782
338.08 K, 2004 kPa	11.667
338.08 K, 15026 kPa	95.246
338.08 K, 20687 kPa	130.132
338.08 K, 30005 kPa	177.38
338.08 K, 50031 kPa	241.969
338.08 K, 59971 kPa	263.229
338.09 K, 164905 kPa	369.665
338.1 K, 9969 kPa	62.054
338.1 K, 80310 kPa	295.61
338.11 K, 99908 kPa	318.744
338.12 K, 179829 kPa	378.164
399.94 K, 89964 kPa	274.637
399.97 K, 59973 kPa	225.951
399.98 K, 1002 kPa	4.86
399.98 K, 30014 kPa	141.158
399.99 K, 15027 kPa	74.789
400 K, 50037 kPa	203.469
400 K, 79920 kPa	260.652
400.01 K, 2001 kPa	9.744
400.01 K, 6915 kPa	34.195
400.01 K, 10002 kPa	49.746
400.02 K, 20675 kPa	101.642
400.02 K, 124882 kPa	312.062
400.02 K, 149627 kPa	332.136
400.03 K, 13795 kPa	68.723
400.04 K, 34510 kPa	157.64
400.04 K, 69978 kPa	244.725
400.07 K, 5005 kPa	24.61
400.09 K, 99984 kPa	286.8
450 K, 2009 kPa	8.61
450.01 K, 20697 kPa	87.478
450.01 K, 99932 kPa	264.608
450.02 K, 89981 kPa	251.923
450.02 K, 119918 kPa	286.376
450.03 K, 59975 kPa	202.137
450.03 K, 139476 kPa	304.187
450.05 K, 30002 kPa	121.791
450.06 K, 50036 kPa	179.955
450.06 K, 69966 kPa	221.073
450.08 K, 80008 kPa	237.571
450.09 K, 6886 kPa	29.741
450.12 K, 34492 kPa	136.647
